# Laboratory results reported in patent publication US8252737B2, “Antimicrobial peptides and methods of use” (priority 2004, dated 2012).
# Square brackets hold non-standard residues; d marks the D form. Peptide text beside a SMILES is read from it.
# Experiments:
# human erythrocytes = assay: Hemolytic activity (MHC), Protocol A, 12 hours
# Summary of the method: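 Twofold peptide dilutions incubated with 1% human erythrocytes in phosphate-buffered saline at 37 °C for 12 h; hemoglobin release read spectrophotometrically at 562 nm, or at 570 nm in a repeat. Hemolytic titer taken as the highest 2-fold dilution still releasing hemoglobin, versus peptide-free erythrocytes.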
# gram-negative bacteria = assay: MIC, microtiter dilution, Gram-negative bacteria (geometric mean of 6 strains); assay type: cell-based; conditions: geometric mean MIC, Table 9
# Summary of the method: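 Microtiter broth dilution in LB no-salt or Mueller-Hinton broth (brain heart infusion for P. aeruginosa clinical isolates, inoculum 1×10^6 CFU/ml); overnight 37° C. cultures diluted, plates incubated 37° C. 24 h. MIC is lowest peptide concentration inhibiting growth; value is geometric mean over 6 strains.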
# [1] = Circular dichroism spectroscopy of helical structure (benign buffer and 50% TFE); assay type: physicochemical; conditions: 25° C.
# Summary of the method: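 Peptide CD spectra at 25 °C, 190–250 nm, in benign buffer (50 mM KH2PO4/K2HPO4, 100 mM KCl, pH 7) and in the same buffer with 50% TFE. Samples were a 10-fold dilution of ~500 μM stock. Mean residue molar ellipticity at 222 nm gave relative α-helicity.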
smiles,measurement,setting,value
CC[C@H](C)[C@H](NC(=O)[C@H](C)NC(=O)[C@H](CCCCN)NC(=O)[C@H](CC(C)C)NC(=O)[C@H](C)NC(=O)[C@@H](NC(=O)[C@H](Cc1c[nH]cn1)NC(=O)[C@H](CC(C)C)NC(=O)[C@@H](NC(=O)[C@@H](NC(=O)[C@H](CCCCN)NC(=O)[C@@H](NC(=O)[C@H](C)NC(=O)[C@@H](CC(C)C)NC(=O)[C@H](CCCCN)NC(=O)[C@H](Cc1ccccc1)NC(=O)[C@@H](NC(=O)[C@H](CCCCN)NC(=O)[C@H](CC(C)C)NC(=O)[C@H](Cc1ccccc1)NC(=O)[C@H](CO)NC(=O)[C@H](CCCCN)NC(=O)[C@H](Cc1c[nH]c2ccccc12)NC(=O)[C@H](CCCCN)NC(C)=O)[C@@H](C)O)C(C)C)[C@@H](C)O)C(C)C)[C@@H](C)O)C(=O)N[C@@H](CO)C(=O)N[C@@H](CO)C(N)=O [PLD] (Ac-KWKSFLKTFK[dL]AVKTVLHTALKAISS-NH2),MHC,human erythrocytes,31.2 µg/mL
same,MIC (μg/ml) Gram-negative,gram-negative bacteria,5.0 µg/mL
same,% helix 50% TFE,"[1]; 50% TFE, relative to NAL in 50% TFE",90%
same,[θ]222 Benign,"[1]; benign buffer (100 mM KCl, 50 mM PO4 pH 7.0)","−2,950 deg · cm^2 · dmol^−1"
same,[θ]222 50% TFE,[1]; benign buffer diluted 1:1 (v/v) with TFE,"−26,100 deg · cm^2 · dmol^−1"
same,% helix Benign,"[1]; benign buffer, relative to NAL in 50% TFE",10%
